Experimental data reported in patent EP0200406A2, “Novel amino acid derivatives” (Kissei Pharmaceutical Co Ltd, priority 1985, dated 1986).

Key:
renin [1] = target: T1, renin (Homo sapiens, UniProt P00797); assay: Human renin-sheep renin substrate reaction system in vitro; format: biochemical; conditions: purified human renin, semipurified sheep renin substrate, pH 7.4, 15 minutes at 37°C, angiotensin I by radioimmunoassay; read-out: IC50 molar concentration
T1 sequence (P00797 67-406): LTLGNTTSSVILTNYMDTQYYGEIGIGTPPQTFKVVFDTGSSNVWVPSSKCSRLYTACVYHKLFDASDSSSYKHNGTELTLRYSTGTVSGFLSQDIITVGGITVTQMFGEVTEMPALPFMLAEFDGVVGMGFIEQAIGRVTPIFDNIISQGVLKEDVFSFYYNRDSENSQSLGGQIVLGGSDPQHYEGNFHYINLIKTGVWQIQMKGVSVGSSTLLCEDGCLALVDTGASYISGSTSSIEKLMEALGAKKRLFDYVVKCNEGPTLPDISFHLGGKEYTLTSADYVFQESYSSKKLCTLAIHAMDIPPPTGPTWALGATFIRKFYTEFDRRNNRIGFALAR
Experimental: To a mixture containing 200 µl of a 125 mM pyrophosphate buffer (pH 7.4), 25 µl of a 20 mM aqueous solution of L-phenylalanyl-L-alanyl-L-prolin as an angiotensin cnverting enzyme inhibitor, 50 µ01 of semipurified sheep renin substrate (2000 ng angiotensin I/ml), 50 µl of dimethyl sulfoxide solution of an amino acid compound of the present invention and 150 µl of deionized water was added 25 µl of purified human renin (20-30 ng angiotensin I/ml/hr. The mixture was incubated for 15 minutes on a water bath at 37°C, and the reaction mixture was allowed to stand for 5 minutes on a water bath at 100°C to stop the reaction. After cooling, 200 µl of the solution were taken up and the amount of angiotensin I produced by the addition of renin was determined by radiommunoassay. The inhibitory effect was calculated by the following equation.
As a control, the same procedure as above was carried out by using 50 µl of dimethyl sulfoxide alone in place of the 50 µl of dimethyl sulfoxide solution containing an amino acid compound of the present invention.

renin [2] = target: T1, renin; assay: Renin inhibitory effect in a human high renin plasma; format: biochemical; set-up: from tissue; host or cells: human high renin plasma; conditions: pH 7, 60 minutes at 37°C, angiotensin I by radioimmunoassay, read-out: IC50 (molar concentration)
Experimental: A mixture of 350 µl of a 0.5 M phosphate buffer containing 14 mM EDTA 2Na and a 0.3% neomycin sulfate, which was adjusted to the pH of 7, 50 µl of a 20 mM an aqueous solution of L-phenylalanyl-L-alanyl-L-prolin as an angiotensin converting enzyme inhibitor and 100 µl of dimethyl sulfoxide solution containing an amino acid compound of the present invention was added to 500 µl of human high renin plasma, and 200 µl of the mixture was incubated at 4°C in an ice bath, and remaining mixture (800 µl) was incubated for 60 minutes at 37°C in a water bath. A 200 µl sample was withdrawn from the incubated mixture, chilled immediately in an ice bath, and the amount (A) of angiotensin I produced was determined by radioimmunoassay.
Also, the amount (B) of angiotensin I produced in the incubated mixture at 4°C in an ice bath was determined by radioimmunoassy.
As a control, the same procedure as above was carried out by using 100 µl of dimethyl sulfoxide alone in place of the 100µl of dimethyl sulfoxide solution containing an amino acid compound of the present invention.
The renin inhibitory effect in human plasa was calculated by taking the amount of angiotensin I - (A) from the amount of angiotensin I (B). The inhibotory effect was calculated by the following equation. [formula]

common marmoset = assay: Hypotensive effect in marmoset; format: in vivo; conditions: orally 30 mg/kg, conscious male marmosets in high renin state (furosemide), Control 103.5
Experimental: The experiment was carrried out by using common marmoset as described in K.G. Hofbauer et al., Clinical and Experimental hypertension, Vol. A5, Nos. 7 & 8 (1983), pages 1237-1247.
Furosemide was orally administered three times to common marmoset at 15 mg per kilogram per day every other day to create a high renin state. Blood pressure of consious marmoset was measured 2 days after the last administration of furosemide.
Three consious male marmosets marmosets weighing 305-345 g were fixed. Mean blood pressure at tail artery was recorded on pretismograph instrument. The amino acid compound, of the present invention isopropyl (2RS. 3S)-3-{N-[2-(1-naphthylmethyl)-3-(morpholinocarbonylpropionyl]-L-histidyl}amino-2-hydroxy-5-methylhexanoate and administered orally at 30 mg/kg by using a catheter. The results obtained are shown below.

| IC50 (renin [1]) [nM] | IC50 (renin [2]) [nM] | Structure (SMILES) | also measured |
| --- | --- | --- | --- |
| 340 | – | CNC(=O)C(O)[C@H](CC(C)C)NC(=O)[C@H](Cc1c[nH]cn1)NC(=O)C(CC(=O)N1CCOCC1)Cc1cccc2ccccc12 (mixture of isomers) [Example 3, (2RS, 3S)-3-{N-[2-(1-Naphthylmethyl)-3-(morpholinocarbonyl)propionyl]-L-histidyl}amino-2-hydroxy-5-methylhexanoylmethylamide] | – |
| 690 | 5200 | CNC(=O)C(O)[C@H](CC(C)C)NC(=O)[C@H](Cc1c[nH]cn1)NC(=O)C(CC(=O)N1CCCCC1)Cc1cccc2ccccc12 (mixture of isomers) [Example 7, (2RS, 3S)-3-{N-[2-(1-Naphthylmethyl)-3-(piperidinocarbonyl)propionyl]-L-histidyl}amino-2-hydroxy-5-methylhexanoylmethylamide] | – |
| 630 | – | CCNC(=O)CC(Cc1cccc2ccccc12)C(=O)N[C@@H](Cc1c[nH]cn1)C(=O)N[C@@H](CC(C)C)C(O)C(=O)OC (mixture of isomers) [Example 10, Methyl (2RS, 3S)-3-{N-[2-(1-naphthylmethyl)-3-(ethylcarbamoyl)propionyl]-L-histidyl}amino-2-hydroxy-5-methylhexanoate] | – |
| – | – | CC(C)C[C@H](NC(=O)[C@H](Cc1cnc[nH]1)NC(=O)C(CC(=O)N1CCOCC1)Cc1cccc2ccccc12)C(O)C(=O)OC(C)C (stereo partly drawn) [Example 1] | Mean blood pressure (common marmoset; 0.5 hours after administration): 88.7 mmHg; Mean blood pressure (common marmoset; 1 hour after administration): 85.6 mmHg; Mean blood pressure (common marmoset; 2 hours after administration): 87.2 mmHg; Mean blood pressure (common marmoset; 3 hours after administration): 89.3 mmHg; Mean blood pressure (common marmoset; 5 hours after administration): 92.4 mmHg; Mean blood pressure (common marmoset; 7 hours after administration): 92.3 mmHg; Mean blood pressure (common marmoset; 9 hours after administration): 92.8 mmHg; Mean blood pressure (common marmoset; 24 hours after administration): 101.9 mmHg |
| 28 | 88 | CC(C)C[C@H](NC(=O)[C@H](Cc1c[nH]cn1)NC(=O)C(CC(=O)N1CCCCC1)Cc1cccc2ccccc12)C(O)C(=O)OC(C)C (stereo partly drawn) [Example 5, lsopropyl (2RS, 3S)-3-{N-[2-(1-Naphthytmethyl)-3-(piperidinocarbonyl)propionyl}-t-hisfidyl)amino-2-hydroxy-5-methylhexanoate] | – |
| 69 | 62 | COC(=O)C(O)[C@H](CC(C)C)NC(=O)[C@H](Cc1c[nH]cn1)NC(=O)C(CC(=O)N1CCCC1)Cc1cccc2ccccc12 (stereo partly drawn) [Example 8, Methyl (2RS, 3S)-3-{N-[2-(1-naphthylmethyl)-3-(pyrroiidinocarbonyl)propionyl]-L-histidyl}amino-2-hydroxy-5-methylhexanoate] | – |
| 210 | – | COC(=O)C[C@H](O)[C@H](CC(C)C)NC(=O)[C@H](Cc1c[nH]cn1)NC(=O)C(CC(=O)N1CCOCC1)Cc1cccc2ccccc12 (stereo partly drawn) [Example 11, Methyl N-[2-(1-naphthylmethyl)-3-(morpholinocarbonyl)propionyl]-L-histidyistatinate] | – |
| 36 | – | CC(C)CCNC(=O)C[C@H](O)[C@H](CC(C)C)NC(=O)[C@H](Cc1c[nH]cn1)NC(=O)C(CC(=O)N1CCOCC1)Cc1cccc2ccccc12 (stereo partly drawn) [Example 13, N-[2-(1-Naphthyfmethyl)-3-(morpholinocarbouyl)-propionyl]-L-histidyl-statylisoamylamide] | – |
